This is an account of results in patent US20190322676A1, “CERAMIDE GALACTOSYLTRANSFERASE INHIBITORS FOR THE TREATMENT OF DISEASE” (BioMarin Pharmaceutical Inc., priority 2016, published 2019).

pIC50: −log10 of the molar value. Where a name gives a salt, the structure may show the parent alone.

In the assay the target is T1, human CGT (ceramide galactosyltransferase), CHO/CGT lysate (Homo sapiens, UniProt Q16880).
T1 construct: Full-length human CGT cDNA was cloned into the BamH1/Xho1 site of pcDNA3.1 (+); expressed in transfected cells; host or cells: Chinese hamster ovary (CHO) cells; lysate prepared with M-PER
T1 sequence (Q16880 21-541): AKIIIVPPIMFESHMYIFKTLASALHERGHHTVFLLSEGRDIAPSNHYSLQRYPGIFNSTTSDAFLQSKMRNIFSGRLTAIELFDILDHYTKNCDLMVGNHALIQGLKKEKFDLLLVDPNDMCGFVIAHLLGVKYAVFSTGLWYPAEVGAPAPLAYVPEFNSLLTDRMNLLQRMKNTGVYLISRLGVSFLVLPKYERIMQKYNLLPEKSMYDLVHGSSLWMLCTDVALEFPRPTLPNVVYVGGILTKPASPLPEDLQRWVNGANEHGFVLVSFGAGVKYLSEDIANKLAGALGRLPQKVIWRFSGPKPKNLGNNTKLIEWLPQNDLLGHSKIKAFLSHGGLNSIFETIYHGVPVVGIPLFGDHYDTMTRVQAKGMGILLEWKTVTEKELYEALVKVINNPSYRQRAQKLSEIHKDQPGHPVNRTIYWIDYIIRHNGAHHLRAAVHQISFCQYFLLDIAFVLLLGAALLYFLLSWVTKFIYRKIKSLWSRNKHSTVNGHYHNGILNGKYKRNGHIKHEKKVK
In words: CGT enzyme assay, LC-MS/MS readout (Table 1 ranges without asterisk). The following applies: LC-MS/MS method (range without asterisk). The format is biochemical. The protocol: Full-length human CGT cDNA was cloned into the BamH1/Xho1 site of pcDNA3.1 (+) mammalian expression vector (V90-20, Invitrogen, Carlsbad, Calif.) and the plasmid was transfected into Chinese hamster ovary (CHO) cells. Lysate was prepared using M-PER (Mammalian Protein Extraction Reagent, ThermoFisher Scientific, Grand Island, N.Y.) in the presence of a protease inhibitor cocktail (P8340, Sigma, Saint Louis, Mo.). Each 100 mm dish (100% confluent, approximately 1×10^7 cells) was lysed with 250 μL of M-PER containing protease inhibitors. Protein concentration was determined using a Pierce BCA protein assay kit (ThermoFisher Scientific). Four micrograms of CHO/CGT lysate was incubated with various concentrations of a compound (0.001 μM-50 μM) in 10 mM HEPES (pH 7.2) containing 35 μM dioleoylphosphatidylcholine, 5 mM MgCl2, 5 mM MnCl2, 1% BSA, 15 mM KCl, 1 mM EGTA, 8 mM CHAPS, 10 μM C6-NBD-dihydro-ceramide and 17.5 μM UDP-galactose in a final reaction volume of 20 μL at 37° C. for 1 hour. The final concentration of DMSO was 0.5% in both compound-treated and mock-treated samples. Tween 80 (0.01%) was optionally added to the reaction mixture to help solubilize the compounds. Each individual reaction was diluted with 80 μL of methanol:acetronitrile (1:3) containing 5 μM N-docdecanoyl-NBD-galactosylceramide (internal standard) to stop the reaction. 200 μL H2O:acetonitile (1:1) was added to precipitate the protein. After sufficient mixing, the plates were centrifuged at 2469 g for 38 minutes, 200 μL of supernatant was transferred to a LC/MS 96-deep well plate and a second spin was performed at 2469 g for 10 minutes. The final supernatant was injected in triplicate for RapidFire/MS/MS analysis.
An alternative LC-MS/MS based method was also used. For the LC-MS/MS readout, the CGT assay was identical to the one described above except for the following: […] was used as the CGT enzyme source, C12:0 (2R—OH) ceramide was used as the ceramide substrate and 0.3 μM Cl2 ceramide was used as the internal standard. Tween 80 was not present in the reaction mixture. The final supernatant was injected for LC-MS/MS analysis.
Quantitative analysis using the LC-MS/MS method: The quantitative analysis of C12:0 (2R—OH) ceramide and C12:0 (2R—OH) galactosylceramide by LC-MS/MS was performed on a Shimadzu ultra-fast liquid chromatography (Shimadzu, Japan) coupled with API 4000 mass spectrometer (Applied Biosystems, Concord, Ontario, Canada). Analyst 1.5 software packages (Applied Biosystems) were used to control the LC-MS/MS system, as well as for data acquisition and processing. 10 μL of sample was loaded onto a Luna C18 column (50 mm×2.0 mm, I.D. 3 μm, 100A) (Phenomenex, USA) for chromatographic separation. Mobile phase A consisted of HPLC grade water with 0.1% formic acid (v/v) and mobile phase B consisted of acetonitrile supplemented with 0.1% formic acid (v/v). The separation was achieved using the following gradient program at a flow rate of 0.8 mL/min: the initial mobile phase was 70% B, which was increased in a linear fashion to 95% B in 1.50 min, and then maintained at 95% B until 3.50 min. The mobile phase was then reset to 70% B within 0.01 min, and maintained until 4.50 min. The total run time was 4.50 min. The MS/MS detection was performed in ESI positive mode. The mass transition selected for quantification was m/z 498.5-264.3 for C12:0 (2R—OH) ceramide under the collision energy of 38.8 V, and the mass transition of C12:0 (2R—OH) galactosylceramide was m/z 660.6-264.5 under the collision energy of 51 V. The mass transition of Cl2 ceramide which was used as internal standard was m/z 482.4-264.3 under the collision energy of 33V. Compound IC50 values were calculated using a protocol identical to the one described for the RapidFire method (see Table 1, where data ranges without an asterix correspond to analysis using the LC-MS/MS method).
Using the above CGT enzyme and CGT cellular assays, the compounds of Table 1 were tested. […]
With `NC1CC2CCC(C1)N2C(=O)[C@H](NS(=O)(=O)c1ccc(Oc2ccc(Cl)cn2)cc1)C(F)(F)c1ccc(Br)cc1` (stereo partly drawn) [Compound 18-2, N-((2S)-3-(3-amino-8-azabicyclo[3.2.1]octan-8-yl)-1-(4-bromophenyl)-1,1-difluoro-3-oxopropan-2-yl)-4-((5-chloropyridin-2-yl)oxy) benzenesulfonamide trifluoroacetate], the negative-log IC50 (pIC50) was 4.00 to 4.52.
The value for `CC(C)Oc1ccc2cc([C@H](O)C(=O)N[C@H](C(=O)N3C4CCC3CC(N)C4)C(F)(F)c3ccc(Br)cc3)ccc2c1` (stereo partly drawn) [Compound 19-3, (2S)—N-((2R)-3-(3-amino-8-azabicyclo[3.2.1]octan-8-yl)-1-(4-bromophenyl)-1,1-difluoro-3-oxopropan-2-yl)-2-hydroxy-2-(6-isopropoxynaphthalen-2-yl)acetamide trifluoroacetate] was 5.00 to 6.00.
The value for `CC(C)Oc1ccc2cc([C@@H](O)C(=O)N[C@H](C(=O)N3C4CCC3CC(N)C4)C(F)(F)c3ccc(Br)cc3)ccc2c1` (stereo partly drawn) [Compound 19-5, (2R)—N-((2R)-3-(3-amino-8-azabicyclo[3.2.1]octan-8-yl)-1-(4-bromophenyl)-1,1-difluoro-3-oxopropan-2-yl)-2-hydroxy-2-(6-isopropoxynaphthalen-2-yl)acetamide trifluoroacetate] was 4.52 to 5.00.
In turn, `CC(C)Oc1ccc2cc([C@H](O)C(=O)N[C@@H](C(=O)N3C4CCC3CC(N)C4)C(F)(F)c3ccc(Br)cc3)ccc2c1` (stereo partly drawn) [Compound 19-6, (2S)—N-((2S)-3-(3-amino-8-azabicyclo[3.2.1]octan-8-yl)-1-(4-bromophenyl)-1,1-difluoro-3-oxopropan-2-yl)-2-hydroxy-2-(6-isopropoxynaphthalen-2-yl)acetamide trifluoroacetate] gave a negative logarithm of the IC50 (pIC50) of 4.00 to 4.52.
With `NC1CC2CCC(C1)N2C(=O)[C@@H](NS(=O)(=O)c1ccc(OCC2CCCC2)cc1)C(F)(F)c1ccc(Br)cc1` (stereo partly drawn) [Compound 20-1, N-((2R)-3-(3-amino-8-azabicyclo[3.2.1]octan-8-yl)-1-(4-bromophenyl)-1,1-difluoro-3-oxopropan-2-yl)-4-(cyclopentylmethoxy)benzenesulfonamide trifluoroacetate], the negative logarithm of the IC50 (pIC50) is 5.00 to 6.00.
The value for `NC1CC2CCC(C1)N2C(=O)[C@H](NS(=O)(=O)c1ccc(OCC2CCCC2)cc1)C(F)(F)c1ccc(Br)cc1` (stereo partly drawn) [Compound 20-2, N-((2S)-3-(3-amino-8-azabicyclo[3.2.1]octan-8-yl)-1-(4-bromophenyl)-1,1-difluoro-3-oxopropan-2-yl)-4-(cyclopentylmethoxy) benzenesulfonamide trifluoroacetate] was 4.52 to 5.00; that for `CC(C)Oc1ccc2cc(S(=O)(=O)N[C@H](C(=O)N3C4CCC3CC(N(C)C)C4)C(F)(F)c3ccc(Br)cc3)ccc2c1` (stereo partly drawn) [Compound 21-1, N-((2R)-1-(4-bromophenyl)-3-(3-(dimethylamino)-8-azabicyclo[3.2.1]octan-8-yl)-1,1-difluoro-3-oxopropan-2-yl)-6-isopropoxynaphthalene-2-sulfonamide] was 4.52 to 5.00; that for `CC(C)Oc1ccc2cc(S(=O)(=O)N[C@@H](C(=O)N3C4CCC3CC(N(C)C)C4)C(F)(F)c3ccc(Br)cc3)ccc2c1` (stereo partly drawn) [Compound 21-2, N-((2S)-1-(4-bromophenyl)-3-(3-(dimethylamino)-8-azabicyclo[3.2.1]octan-8-yl)-1,1-difluoro-3-oxopropan-2-yl)-6-isopropoxy naphthalene-2-sulfonamide] was 4.00 to 4.52.
The value for `CCCCOc1ccc(S(=O)(=O)N[C@H](C(=O)N2C3CCC2CC(N)C3)C(F)(F)c2ccc(Br)cc2)cc1` (stereo partly drawn) [Compound 22-1, N-((2R)-3-(3-amino-8-azabicyclo[3.2.1]octan-8-yl)-1-(4-bromophenyl)-1,1-difluoro-3-oxopropan-2-yl)-4-butoxybenzenesulfonamide] was 5.00 to 6.00; that for `CCCCOc1ccc(S(=O)(=O)N[C@@H](C(=O)N2C3CCC2CC(N)C3)C(F)(F)c2ccc(Br)cc2)cc1` (stereo partly drawn) [Compound 22-2, N-((2S)-3-(3-amino-8-azabicyclo[3.2.1]octan-8-yl)-1-(4-bromophenyl)-1,1-difluoro-3-oxopropan-2-yl)-4-butoxybenzenesulfonamide] was 4.00 to 4.52.
In the case of `CCCCCCOc1ccc(S(=O)(=O)N[C@H](C(=O)N2C3CCC2CC(N)C3)C(F)(F)c2ccc(Br)cc2)cc1` (stereo partly drawn) [Compound 23-1, N-((2R)-3-(3-amino-8-azabicyclo[3.2.1]octan-8-yl)-1-(4-bromophenyl)-1,1-difluoro-3-oxopropan-2-yl)-4-(hexyloxy)benzenesulfonamide] it was 5.00 to 6.00.
With `CCCCCCOc1ccc(S(=O)(=O)N[C@@H](C(=O)N2C3CCC2CC(N)C3)C(F)(F)c2ccc(Br)cc2)cc1` (stereo partly drawn) [Compound 23-2, N-((2S)-3-(3-amino-8-azabicyclo[3.2.1]octan-8-yl)-1-(4-bromophenyl)-1,1-difluoro-3-oxopropan-2-yl)-4-(hexyloxy)benzenesulfonamide], the pIC50 was 4.00 to 4.52.
In the case of `NC1CC2CCC(C1)N2C(=O)[C@@H](NS(=O)(=O)c1ccc2cc(OCc3ccccc3)ccc2c1)C(F)(F)c1ccc(Br)cc1` (stereo partly drawn) [Compound 24-1, N-((2R)-3-(3-amino-8-azabicyclo[3.2.1]octan-8-yl)-1-(4-bromophenyl)-1,1-difluoro-3-oxopropan-2-yl)-6-(benzyloxy)naphthalene-2-sulfonamide] it was 5.00 to 6.00; in that of `NC1CC2CCC(C1)N2C(=O)[C@H](NS(=O)(=O)c1ccc2cc(OCc3ccccc3)ccc2c1)C(F)(F)c1ccc(Br)cc1` (stereo partly drawn) [Compound 24-2, N-((2S)-3-(3-amino-8-azabicyclo[3.2.1]octan-8-yl)-1-(4-bromophenyl)-1,1-difluoro-3-oxopropan-2-yl)-6-(benzyloxy)naphthalene-2-sulfonamide], 4.00 to 4.52; in that of `NC1CC2CCC(C1)N2C(=O)[C@@H](NS(=O)(=O)c1ccc(Oc2ccc(F)cc2)cc1)C(F)(F)c1ccc(Br)cc1` (stereo partly drawn) [Compound 25-1, N-((2R)-3-(3-amino-8-azabicyclo[3.2.1]octan-8-yl)-1-(4-bromophenyl)-1,1-difluoro-3-oxopropan-2-yl)-4-(4-fluorophenoxy)benzenesulfonamide trifluoroacetate], 5.00 to 6.00.
In the case of `NC1CC2CCC(C1)N2C(=O)[C@H](NS(=O)(=O)c1ccc(Oc2ccc(F)cc2)cc1)C(F)(F)c1ccc(Br)cc1` (stereo partly drawn) [Compound 25-2, N-((2S)-3-(3-amino-8-azabicyclo[3.2.1]octan-8-yl)-1-(4-bromophenyl)-1,1-difluoro-3-oxopropan-2-yl)-4-(4-fluorophenoxy) benzenesulfonamide trifluoroacetate] it was 4.00 to 4.52.

As a reminder, the pIC50 is −log10 of the IC50, conventionally taken in molar units.
